In patent US7317038B2, “Nerve regeneration promoters containing semaphorin inhibitor as the active ingredient” (Dainippon Sumitomo Pharma Co., Ltd., priority 2000, dated 2008):
Entries after “also recorded” stand apart in the source; their conditions may differ.

What was measured:
Sema3A = target: T1, Sema3A (Mus musculus, UniProt O08665); assay: Inhibition of collapse activity by contact of Sema3A and the inhibitor (Pre-Mix); assay type: cell-based; details: final concentration 0.05 μg/ml
T1 construct: expressed in transfected cells; host or cells: COS7
T1 sequence (O08665 21-772): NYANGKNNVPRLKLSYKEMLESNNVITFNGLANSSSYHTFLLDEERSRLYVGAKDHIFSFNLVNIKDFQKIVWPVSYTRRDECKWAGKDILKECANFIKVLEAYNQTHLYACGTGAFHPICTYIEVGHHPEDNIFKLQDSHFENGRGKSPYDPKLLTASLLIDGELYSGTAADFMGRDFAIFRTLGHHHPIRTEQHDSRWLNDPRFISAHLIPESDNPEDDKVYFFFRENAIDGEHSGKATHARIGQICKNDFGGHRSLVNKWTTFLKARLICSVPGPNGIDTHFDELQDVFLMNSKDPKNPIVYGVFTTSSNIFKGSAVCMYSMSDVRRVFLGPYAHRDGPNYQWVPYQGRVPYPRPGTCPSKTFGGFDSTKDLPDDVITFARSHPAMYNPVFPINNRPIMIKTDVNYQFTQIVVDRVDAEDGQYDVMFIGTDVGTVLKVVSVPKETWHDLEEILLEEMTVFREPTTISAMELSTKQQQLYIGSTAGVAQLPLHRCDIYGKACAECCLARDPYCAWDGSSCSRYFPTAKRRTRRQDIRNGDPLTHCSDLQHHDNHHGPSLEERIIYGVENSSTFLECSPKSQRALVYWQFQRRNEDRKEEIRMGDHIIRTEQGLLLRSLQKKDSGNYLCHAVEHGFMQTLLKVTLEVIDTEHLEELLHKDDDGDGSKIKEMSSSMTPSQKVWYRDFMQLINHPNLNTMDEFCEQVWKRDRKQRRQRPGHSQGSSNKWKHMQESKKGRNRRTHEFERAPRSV
Text: For example, the inhibitory activity of SPF-3059-1 for the binding of Sema3A to Neuropilin-1 was actually examined by using the alkaline phosphatase-fused Sema3A (=Sema3A-AP) and Neuropilin-1-expressing COS7 cells. SPF-3059-1 is a compound discovered by the present inventors, which inhibits both collapse and neurite outgrowth inhibition induced by semaphorin 3A (Sema3A). […] Further, in order to elucidate the mechanism of the said inhibition, that is, in order to elucidate whether SPF-3059-1 interacts with Sema3A or with its receptor, the comparison was made by measuring collapse activity between (1) the collapse activity which was observed when a sample, to which SPF-3059-1 and Sema3A were mixed in advance at the concentration raising sufficient inhibitory activity (0.25 μg/ml of SPF-3059-1), was added to the culture solution of dorsal root ganglions and (2) the collapse activity which was observed when Sema3A was added to the above-mentioned culture solution after the addition of SPF-3059-1. The final concentration of SPF-3059-1 (0.05 μg/ml) in the culture solution was the same both for (1) and (2). […] From the above considerations, SPF-3059-1 is thought to act by a mechanism in which the binding of Sema3A to the receptor is inhibited by the direct action of SPF-3059-1 on Sema3A. […]

[1] = tested on: sciatic nerves that were crushed; assay: In vivo nerve regeneration after sciatic nerve crush; details: rat; 1 ug/day locally for 14 days; distal areas of 2 mm and 6 mm from the crush site
Experimental: Male Wister rats were purchased at 7-week-old (CHARLES RIVER JAPAN, INC.) and bred under the light and dark cycles for 12 hours. The rats had free access to solid feedstuff (CLEA Japan, Inc., CE2) and water, and were used in the experiment after about one week of preliminary breeding. Under pentbarbital anesthesia, sciatic nerve of the rat thighs was exposed, clipped for 30 sec with forceps of 5 mm width, and was thus crushed. The crush site was marked with 10-0 nylon thread. SPF-3059-1 was dissolved in PBS at 8.3 ug/ml and was locally administered to the lesion site for 14 consecutive days at a flow rate of 1 ug/day by using an osmotic pressure pump (2ML2, 5 ul/hr, alzet). PBS was administered to the controls. At Day 14 of administration, the sciatic nerves were excised and trimmed at the distal areas from the crush site (the positions of marking) by 2 mm, 6 mm and 10 mm. The incised sciatic nerves were fixed in 2.5% glutaraldehyde/0.1 M phosphate buffer for a day and a night. When they were fixed, nerves were dehydrated by alcohol and were embedded in epoxy resin. […] After the areas of sciatic nerves were measured, the myelinated fiber density was calculated by […].

SMILES: CC(=O)c1c(C)c(C(=O)C2COc3cc(O)c(O)c(C(=O)O)c3C2=O)cc2c(=O)c3c(C(=O)O)c(O)c(O)cc3oc12 (stereo not drawn) [SPF-3059-1]
- inhibition of Sema3A collapse activity, Pre-Mix sample (Sema3A; Sema3A pre-mixed with 0.25 μg/ml compound): Sema3A activity was inhibited; also recorded: inhibition of collapse activity was observed
- inhibition of Sema3A collapse activity, compound and Sema3A independently added (Sema3A): inhibitory activity will not be observed; also recorded: Inhibition of collapse activity was not observed
- myelinated fiber density vs PBS-injected group [1]: increased more
